Measured values reported in patent US20140228427A1, “PHARMACEUTICAL COMPOSITION CONTAINING WOGONIN AS AN ACTIVE INGREDIENT FOR PREVENTING OR TREATING ASTHMA” (KOREA RESEARCH INSTITUTE OF BIOSCIENCE AND BIOTECHNOLOGY, priority 2011, published 2014).

Legend:
[1] = Body weight of ovalbumin-induced asthma mice; format: in vivo, Balb/c mice; settings: OVA asthma induced mice; Wogonin 30 mg/kg PO, dexamethasone 3 mg/kg PO, montelukast 30 mg/kg PO; asthma induced group 19.72±0.53, normal control 21.60±0.25
Experimental: (§1) To investigate the effect of the Wogonin of the present invention on asthma, 6-week old female Balb/c mice in the weight of about 20 g were used as test animals. After spending one week for adaptation, basic physical examination was performed to select normal ones.
(§2) The test animal was sensitized with 200 μl of phosphate buffer (pH 7.4) containing 2 mg of aluminum hydroxide (A8222, Sigma, St. Louis, Mo.) and 20 μg of ovalbumin (A5503, Sigma, St. Louis, Mo.) by intraperitoneal injection at 2 weeks interval. 1% ovalbumin was inhaled in the mouse for 30 minutes by using an ultrasonic nebulizer from the 28th day to the 30th day after the first intraperitoneal injection of ovalbumin (OVA).
(§3) 24 hours after the final antigen treatment, airway hypersensitivity was measured. 48 hours later, a lethal dose of pentobarbital (Entobar, Hanlim Pharm. Co. Ltd., Seoul, Korea) was administered to the mouse. Body weight was measured and tracheostomy was performed. Bronchoalveolar lavage was performed with 1.2 ml of saline, followed by sampling. The normal control group (NC) was administered with ovalbumin but not inhaled, the asthma induced group (OVA) was administered with ovalbumin and inhaled to induce bronchial asthma, the comparative group 1 (DEXA) was orally administered with dexamethasone (3 mg/kg, PO: D4902, Sigma, St. Louis, Mo.) one hour before inhaling ovalbumin, the comparative group 2 (Monte) was orally administered with montelukast (30 mg/kg, PO) one hour before inhaling ovalbumin, and the experimental group (Wogonin) was orally administered with the Wogonin of Example 1 (30 mg/kg, PO) one hour before inhaling ovalbumin. Each group was composed of 5 white mice.

[2] = test system: airway hypersensitivity in ovalbumin-sensitized Balb/c mice; experiment: Measurement of airway hypersensitivity (Penh, methacholine inhalation, one chamber plethysmography); format: in vivo; settings: for Penh value: mean±S.E.
Experimental: as §1, §2, §3
The effect of the Wogonin of the present invention on asthma related airway hypersensitivity was evaluated by measuring enhanced pause (Penh) which presents the grade of airway obstruction calculated by measuring airway resistance using one chamber plethysmorgraphy (All Medicus, Seoul). For the measurement of Penh, base value was measured under normal breathing condition and then PBS was inhaled by using an ultrasonic nebulizer for 3 minutes, followed by measuring for 3 minutes. Then, methacholine (A2251, Sigma, St. Louis, Mo.), the […], which is generally used to diagnose bronchial asthma, was inhaled to the animal with raising the concentration gradually (12, 25, and 50 mg/ml), followed by measuring Penh. The ratio of Penh increased over the concentrations of methacholine inhaled was presented as % and baseline Penh (saline challenge) was presented as 100%.

[3] = test system: IgE; experiment: Measurement of IgE in serum and bronchoalveolar lavage fluid by enzyme immunoassay; format: in vivo, Balb/c mice; settings: mean±S.E.; for Total IgE Conc. in bronchoalveolar lavage fluid: OVA group 19.02 ± 2.43; for Total IgE Conc. in Serum: OVA group 23139.51 ± 484.45
Experimental: as §1, §2, §3
To investigate the effect of the Wogonin of the present invention on asthma, the inventors measured IgE concentration in serum and bronchoalveolar lavage fluid which is related to the severity of asthma by enzyme immunoassay.
Serum and bronchoalveolar lavage fluid taken from each group were loaded in […] plate on which 0.1M NaHCO3 buffer (pH 8.3) containing 20 μg/ml of ovalbumin (OVA) was coated at 4° C. for overnight. Non-specific reaction was blocked by PBS containing 1% bovine serum albumin. Serum sample was diluted at the ratio of 1:400, followed by reaction at room temperature for 2 hours.
After washing the plate well, the sample was reacted with anti-mouse IgE monoclonal antibody diluted at the ratio of 1:300 for 2 hours. HRP-conjugated goat anti-rat IgG polyclonal A was diluted at the ratio of 1:4000, which was added thereto for further reaction at room temperature for 1 hour, followed by washing.
For color development, 3.3′5.5′-tetramethylbenzidine substrate was added, followed by measuring OD650.

[4] = test system: inflammatory cells (eosinophils and other inflammatory cells) in bronchoalveolar lavage fluid; experiment: Analysis of inflammatory cells in bronchoalveolar lavage fluid; format: in vivo, Balb/c mice; settings: for Cell Number, other cells: OVA group 452.55 ± 93.48
Experimental: as §1, §2, §3
To investigate the effect of the Wogonin of the present invention on asthma, the present inventors measured the increase or decrease of inflammatory cell number which is believed to be involved in asthma.
As soon as bronchoalveolar lavage fluid was recovered from each group, it was stained with Trypan blue. Then, the number of cells, except dead cells, was counted by hemocytometer. The sample was smeared with Cytospin II, followed by Diff-Quick staining (Sysmex, Switzerland) to calculate the numbers of eosinophils and other inflammatory cells.

[5] = test system: IL-4; experiment: Analysis of cytokine mRNA (RT-PCR), IL-4; format: in vivo, Balb/c mice; settings: for Relative Densitometric Value, RDV, IL-4: NC = 100%, OVA group 159.91 ± 14.87
Experimental: as §1, §2, §3
(§4) To investigate the effect of the Wogonin of the present invention on asthma, asthma related cytokine mRNA was measured.
(§5) RNA was isolated from the lung by using trizol (Invitrogen) in order to measure the expressions of Th2 cytokines such as IL-4, IL-6, and IL-13 in the supernatant of bronchoalveolar lavage fluid taken from each group, followed by reverse transcriptase polymerase chain reaction (quantitative RT-PCR, Promega, Wis.). When the lowest expression was indicated as 1, relative densitometric value (RDV) was produced by that to evaluate the expression inhibition effect.

[6] = test system: IL-6; experiment: Analysis of cytokine mRNA (RT-PCR), IL-6; format: in vivo, Balb/c mice; settings: for Relative Densitometric Value, RDV, IL-6: NC = 100%, OVA group 128.20 ± 6.51
Experimental: as §1, §2, §3, §4, §5

[7] = test system: IL-13; experiment: Analysis of cytokine mRNA (RT-PCR), IL-13; format: in vivo, Balb/c mice; settings: for Relative Densitometric Value, RDV, IL-13: NC = 100%, OVA group 187.35 ± 7.49
Experimental: as §1, §2, §3, §4, §5

[8] = test system: reactive oxygen species; experiment: Measurement of reactive oxygen species generation (DCFH-DA fluorescence) in bronchoalveolar lavage fluid; format: in vivo, Balb/c mice; settings: for Reactive oxygen species generation, DCF fluorescence: NC = 100%, OVA group 192.89 ± 27.36; for reduction of reactive oxygen species generation compared with the asthma induced group: vs asthma induced group
Experimental: as §1, §2, §3
The increase of oxidative stress results in the decrease of reaction to steroids. To investigate the effect of the Wogonin of the present invention on asthma, the present inventors measured the generation of reactive oxygen species which is apparent in asthma like in other inflammatory diseases.
A portion of bronchoalveolar lavage fluid of each group was washed with PBS, to which 10 μM of 2,7-Dichlorofluorescein diacetate (DCFH-DA, 35845, Sigma, St. Louis, Mo.), one of the fluorescent reagents, was added. The mixture stood at room temperature for 10 minutes in the darkness, and then measured fluorescence with a spectrofluorometer (Ex=480 nm Em=522 nm).

[9] = test system: infiltration of inflammatory cells around bronchiolus and blood vessels; experiment: Histopathological test of the lung (H&E, inflammatory index); format: in vivo, Balb/c mice; settings: index scale 0-4; for Inflammatory Index around bronchiolus: OVA group 3.60 ± 0.22; for Inflammatory Index around blood vessels: OVA group 3.80 ± 0.18
Experimental: as §1, §2, §3
The infiltration of inflammatory cells including eosinophils, neutrophils, and macrophages is observed in the bronchus sensitized with an antigen. To investigate the effect of the Wogonin of the present invention on asthma, the inventors performed histopathological test with the lung without bronchoalveolar lavage.
The lung extracted without bronchoalveolar lavage from each group was fixed with formalin and embedded in paraffin. Then, 4 μm thick permanent tissue sections were prepared, followed by H&E staining. Upon completion of H&E staining, inflammatory index was measured from 5 random regions of each section, and then mean value was calculated.

[10] = test system: airway hypersensitivity in ovalbumin-sensitized Balb/c mice; experiment: Measurement of airway hypersensitivity (Penh, methacholine inhalation, one chamber plethysmography); format: in vivo; settings: methacholine 12.5 mg/ml; OVA group 2.2917 ± 0.3070; mean±S.E.
[11] = methacholine 0 mg/ml, OVA group 0.6299 ± 0.0617
[12] = methacholine 25 mg/ml, OVA group 6.8642 ± 0.8313
[13] = methacholine 50 mg/ml, OVA group 9.1854 ± 1.6230

SMILES | average body weight [1] [g] | Penh value [2, 11] | Penh value [2, 12] | Penh value [2, 13] | Total IgE Conc. in bronchoalveolar lavage fluid [3] [ng/mL] | Total IgE Conc. in Serum [3] [ng/mL] | Cell Number, eosinophils ([4]; OVA group 71.75 ± 4.63) | Cell Number, other cells [4] | Cell Number, total cells ([4]; OVA group 524.30 ± 43.22) | Relative Densitometric Value, RDV, IL-4 [5] [%] | Relative Densitometric Value, RDV, IL-6 [6] [%] | Relative Densitometric Value, RDV, IL-13 [7] [%] | Reactive oxygen species generation, DCF fluorescence [8] [%] | reduction of reactive oxygen species generation compared with the asthma induced group [8] [%] | Inflammatory Index around bronchiolus [9] | Inflammatory Index around blood vessels [9] | Penh value [10] | other results
C[C@@H]1C[C@H]2[C@@H]3CCC4=CC(=O)C=C[C@]4(C)[C@@]3(F)[C@@H](O)C[C@]2(C)[C@@]1(O)C(=O)CO [DEXA, dexamethasone] | 21.04 ± 0.35 | 0.6486 ± 0.1526 | 1.9963 ± 0.1577 | 2.7864 ± 0.4293 | 10.15 ± 1.38 | 15991.36 ± 1194.92 | 8.24 ± 1.31 ×10^3 cell/mouse | 81.00 ± 10.40 ×10^3 cell/mouse | 89.24 ± 6.98 ×10^3 cell/mouse | 139.60 ± 13.34 | 121.37 ± 6.78 | 176.55 ± 16.13 | 116.55 ± 9.28 | 39.58 | 1.75±0.19 | 1.50 ± 0.22 | 1.6750 ± 0.0820 | Cell Number, eosinophils ([4]; OVA group 71.75 ± 4.63, listed as dexamethasone): 8.24±1.31 ×10^3 cell/mouse; Cell Number, total cells ([4]; OVA group 524.30 ± 43.22, listed as dexamethasone): 89.24±6.98 ×10^3 cell/mouse; Inflammatory Index around blood vessels ([9]; listed as comparative control group 1): 1.50±0.22
CC(C)(O)c1ccccc1CC[C@@H](SCC1(CC(=O)O)CC1)c1cccc(/C=C/c2ccc3ccc(Cl)cc3n2)c1 [Monte, montelukast] | 21.08 ± 0.36 | 0.4525 ± 0.0313 | 2.1006 ± 0.4758 | 2.3576 ± 0.1741 | 10.15 ± 1.58 | 17176.54 ± 2542.98 | 27.88 ± 2.80 ×10^3 cell/mouse | 130.12 ± 9.22 ×10^3 cell/mouse | 167.68 ± 8.80 ×10^3 cell/mouse | 138.86 ± 19.52 | 112.39 ± 7.16 | 157.67 ± 16.60 | 104.48 ± 9.80 | 45.84 | 2.25±0.22 | 2.50 ± 0.25 | 1.5249 ± 0.2432 | Cell Number, eosinophils ([4]; OVA group 71.75 ± 4.63, listed as montelukast): 27.88±2.80 ×10^3 cell/mouse; Cell Number, total cells ([4]; OVA group 524.30 ± 43.22, listed as montelukast): 167.68±8.80 ×10^3 cell/mouse; Inflammatory Index around blood vessels ([9]; listed as comparative control group 2): 0.50±0.25
COc1c(O)cc(O)c2c(=O)cc(-c3ccccc3)oc12 [Wogonin] | 21.92 ± 0.43 | 0.4261 ± 0.0069 | 2.0166 ± 0.2248 | 2.6055 ± 0.2280 | 12.10 ± 1.87 | 19418.52 ± 1332.101 | 32.24±8.84 ×10^3 cell/mouse | 140.28 ± 26.24 ×10^3 cell/mouse | 172.52±29.29 ×10^3 cell/mouse | 118.11 ± 29.80 | 106.87 ± 10.47 | 143.68 ± 14.08 | 60.91 ± 4.14 | 68.42 | 1.00±0.28 | 1.40±0.22 | 1.7059 ± 0.3028 | Penh value over the increase of methacholine concentration ([2]; range over methacholine concentrations): 1.7059-2.6055; suppression of IL-4 expression compared with the asthma induced group ([5]; lung, vs asthma induced group): 26.14%; suppression of IL-6 expression compared with the asthma induced group ([6]; lung, vs asthma induced group): 16.64%; suppression of IL-13 expression compared with the asthma induced group ([7]; lung, vs asthma induced group): 23.30%
